Where two headings read alike, the source gives them in different places.
Assays:
[1] = molecular target: T1, human progesterone receptor-A [PRA] isoform (Homo sapiens, UniProt P06401); assay: Radioligand binding with human progesterone receptor cytosol ([3H]-progesterone competition); conditions: PRA cytosol expressed in insect SF21 cells, [3H]Prog ~0.8 nM, 4° C. overnight; Ki by Cheng-Prusoff, KL ~4.5 nM; read-out: Ki (nM) PR
T1 construct: host or cells: insect SF21 cells (baculovirus)
T1 sequence (P06401 1-769 isoform P06401-2): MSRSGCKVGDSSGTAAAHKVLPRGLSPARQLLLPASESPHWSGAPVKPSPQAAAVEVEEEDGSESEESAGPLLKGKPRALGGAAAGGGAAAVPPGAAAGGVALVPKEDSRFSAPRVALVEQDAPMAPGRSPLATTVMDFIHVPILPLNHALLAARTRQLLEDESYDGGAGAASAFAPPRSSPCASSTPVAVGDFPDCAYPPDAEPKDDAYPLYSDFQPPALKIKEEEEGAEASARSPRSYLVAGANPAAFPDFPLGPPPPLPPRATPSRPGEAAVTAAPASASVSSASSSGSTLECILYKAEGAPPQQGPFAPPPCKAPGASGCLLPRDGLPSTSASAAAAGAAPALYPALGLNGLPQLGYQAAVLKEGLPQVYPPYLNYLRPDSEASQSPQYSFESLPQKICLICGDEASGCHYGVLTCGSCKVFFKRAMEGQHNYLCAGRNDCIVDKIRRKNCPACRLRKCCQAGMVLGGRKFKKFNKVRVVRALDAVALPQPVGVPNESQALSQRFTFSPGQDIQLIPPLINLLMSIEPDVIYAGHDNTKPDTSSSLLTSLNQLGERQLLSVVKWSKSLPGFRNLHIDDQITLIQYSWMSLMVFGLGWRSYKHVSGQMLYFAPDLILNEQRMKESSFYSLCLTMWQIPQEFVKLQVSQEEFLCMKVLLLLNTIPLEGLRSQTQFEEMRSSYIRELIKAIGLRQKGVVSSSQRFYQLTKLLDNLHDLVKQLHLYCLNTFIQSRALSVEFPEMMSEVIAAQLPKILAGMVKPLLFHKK

[2] = molecular target: T2, human glucocorticoid receptor-α [GRX] isoform (Homo sapiens, UniProt P04150); assay: Radioligand binding with human glucocorticoid receptor cytosol ([3H]-dexamethasone competition)
T2 construct: host or cells: insect SF21 cells (baculovirus)
T2 sequence (P04150 1-777): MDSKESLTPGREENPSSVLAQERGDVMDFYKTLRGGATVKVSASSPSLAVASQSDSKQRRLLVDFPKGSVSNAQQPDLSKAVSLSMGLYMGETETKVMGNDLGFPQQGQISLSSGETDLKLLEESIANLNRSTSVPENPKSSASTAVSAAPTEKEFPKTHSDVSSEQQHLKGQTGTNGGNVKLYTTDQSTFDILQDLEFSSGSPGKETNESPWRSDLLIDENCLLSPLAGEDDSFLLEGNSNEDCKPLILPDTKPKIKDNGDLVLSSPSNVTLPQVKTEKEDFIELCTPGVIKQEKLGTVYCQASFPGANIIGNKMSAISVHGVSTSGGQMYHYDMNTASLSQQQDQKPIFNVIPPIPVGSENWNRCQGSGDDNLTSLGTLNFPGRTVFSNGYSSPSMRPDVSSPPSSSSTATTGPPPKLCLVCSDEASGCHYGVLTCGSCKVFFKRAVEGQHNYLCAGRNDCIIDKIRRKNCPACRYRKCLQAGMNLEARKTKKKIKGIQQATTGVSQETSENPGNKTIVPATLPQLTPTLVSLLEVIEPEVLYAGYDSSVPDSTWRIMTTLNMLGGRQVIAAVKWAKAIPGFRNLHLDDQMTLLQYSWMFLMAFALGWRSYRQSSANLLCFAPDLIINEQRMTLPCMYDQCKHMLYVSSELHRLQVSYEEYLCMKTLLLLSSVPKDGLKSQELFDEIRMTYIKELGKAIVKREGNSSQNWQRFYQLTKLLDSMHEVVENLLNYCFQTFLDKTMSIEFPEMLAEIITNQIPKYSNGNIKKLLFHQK

[3] = GRX cytosol expressed in insect SF21 cells, [3H]-Dex ~0.9 nM, 4° C. overnight, Ki by Cheng-Prusoff, KL ~[…], read-out: Ki (nM) GR

Row | SMILES | Ki [1] | Ki [2, 3] | Ki ([2]; Ki (nM) GR)
1 | COc1cccc2c1-c1ccc3c(c1C(CCCNC(=O)NN)O2)C(C)=CC(C)(C)N3 (stereo not shown) [Example 178, 2,5-Dihydro-10-methoxy-5-(1-(hydrazinocarbonylamino)-3-propyl)-2,2,4-trimethyl-1H-[1]benzopyrano[3,4-f]quinoline] | ≥ 10000 nM | 468 nM | –
2 | COC(=O)/C=C/C1Oc2cccc(OC)c2-c2ccc3c(c21)C(C)=CC(C)(C)N3 (stereo not shown) [Example 179, (E) 2,5-Dihydro-10-methoxy-5-(2-carbomethoxy-1-ethenyl)-2,2,4-trimethyl-1H-[1]benzopyrano[3,4-f]quinoline] | 2750 nM | 9.5 nM | –
3 | C/C=C\C1Oc2cccc(OC)c2-c2ccc3c(c21)C(C)=CC(C)(C)N3 (stereo not shown) [Example 180, (Z)-2,5-Dihydro-10-methoxy-5-(1-propenyl)-2,2,4-trimethyl-1H-[1]benzopyrano[3,4-f]quinoline] | 733 nM | 18 nM | –
4 | COc1cccc2c1-c1ccc3c(c1C(/C=C/CO)O2)C(C)=CC(C)(C)N3 (stereo not shown) [Example 181, (E) 2,5-Dihydro-10-methoxy-5-(3-hydroxy-1-propenyl)-2,2,4-trimethyl-1H-[1]benzopyrano[3,4-f]quinoline] | ≥ 10000 nM | 207 nM | –
5 | COc1cccc2c1-c1ccc3c(c1C(/C=C/COC(=O)N(C)C)O2)C(C)=CC(C)(C)N3 (stereo not shown) [Example 182, (E) 2,5-Dihydro-10-methoxy-5-(3-(N,N-dimethylaminocarbonyloxy)-1-propenyl)-2,2,4-trimethyl-1H-[1]benzopyrano[3,4-f]quinoline] | ≥ 10000 nM | 23 nM | –
6 | COCOC/C=C/C1Oc2cccc(OC)c2-c2ccc3c(c21)C(C)=CC(C)(C)N3 (stereo not shown) [Example 183, (E) 2,5-Dihydro-10-methoxy-5-(3-methoxymethoxy-1-propenyl)-2,2,4-trimethyl-1H-[1]benzopyrano[3,4-f]quinoline] | ≥ 10000 nM | 38 nM | –
7 | COc1cccc2c1-c1ccc3c(c1C(CC(=O)N(C)OC)O2)C(C)=CC(C)(C)N3 (stereo not shown) [Example 185, Methyl 2-(2,5-Dihydro-10-methoxy-2,2,4-trimethyl-1H-[1]benzopyrano[3,4-f]quinolin-5-yl)acetyl Hydroxamate] | ≥ 10000 nM | 288 nM | –
8 | COc1cccc2c1-c1ccc3c(c1C(CC=O)O2)C(C)=CC(C)(C)N3 (stereo not shown) [Example 186, 2-(2,5-Dihydro-10-methoxy-2,2,4-trimethyl-1H-[1]benzopyrano[3,4-f]quinolin-5-yl)acetaldehyde] | ≥ 10000 nM | 90 nM | –
9 | COc1cccc2c1-c1ccc3c(c1C(CC=C1CCCC1)O2)C(C)=CC(C)(C)N3 (stereo not shown) [Example 188, 2,5-Dihydro-10-methoxy-5-(2-cyclopentylidenylethyl)-2,2,4-trimethyl-1H-[1]benzopyrano[3,4-f]quinoline] | 5300 nM | – | 4.9 nM
10 | COc1cccc2c1-c1ccc3c(c1C(CC=C(C)C)O2)C(C)=CC(C)(C)N3 (stereo not shown) [Example 190, 2,5-Dihydro-10-methoxy-5-(3-methyl-2-butenyl)-2,2,4-trimethyl-1H-[1]benzopyrano[3,4f-]quinoline] | 1590 nM | 6.25 nM | –
11 | C/C=C/CC1Oc2cccc(OC)c2-c2ccc3c(c21)C(C)=CC(C)(C)N3 (stereo not drawn) [Example 191, trans 2,5-Dihydro-10-methoxy-5-(2-butenyl)-2,2,4-trimethyl-1H-[1]benzopyrano[3,4-f]quinoline] | 1190 nM | 2.9 nM | –
12 | CC/C=C/CC1Oc2cccc(OC)c2-c2ccc3c(c21)C(C)=CC(C)(C)N3 (stereo not drawn) [Example 192, trans 2,5-Dihydro-10-methoxy-5-(2-penten-1-yl)-2,2,4-trimethyl-1H-[1]benzopyrano[3,4-f]quinoline] | ≥ 10000 nM | 3.1 nM | –
13 | COc1cccc2c1-c1ccc3c(c1C(CC=C(F)F)O2)C(C)=CC(C)(C)N3 (stereo not shown) [Example 193, 2,5-Dihydro-10-methoxy-5-(1,1-difluoro-1-propen-3-yl)-2,2,4-trimethyl-1H-[1]benzopyrano[3,4-f]quinoline] | 2180 nM | – | 2 nM
14 | COC(=O)/C=C/CC1Oc2cccc(OC)c2-c2ccc3c(c21)C(C)=CC(C)(C)N3 (stereo not shown) [Example 194] | ≥ 10000 nM | 7.7 nM | –
